In the first experiment the test system is Jurkat FADD (−/−) Cells. Description: TNF-α induced necroptosis of Jurkat FADD-deficient cells (CellTiter-Glo cell survival). Particulars: Homo sapiens, Jurkat, 13 h. In kind it is cell-based, human. The method, boiled down:
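Cells in RPMI 1640 with 10% FBS were pretreated for 1 h at 37 °C with compound (12-point threefold series from 25 μM, or 0.5 μM, in triplicate). They were then stimulated with TNFα added as a 5 ng/mL solution for 13 h. Survival was read by luminescence.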
For orientation: Cellular ATP, detected with luciferase, serves as a proxy for viable cell number.
A word on the IC50: it is the midpoint of a concentration-inhibition curve. For the molecule `COC(=O)C(=O)c1cn2c3c(cccc13)N(C)C(=O)[C@@H](NC(=O)c1nnc(Cc3ccccc3)[nH]1)C2` [T-92, Methyl(S)-2-(3-(5-benzyl-4H-1,2,4-triazole-3-carboxamide)-1-methyl-2-oxo-1,2,3,4-tetrahydro-[1,4]diazepine [3,2,1-hi]indol-7-yl)-2-oxoacetic Acid], the IC50 is more than 1000 nM. `CN1C(=O)[C@@H](NC(=O)c2nnc(Cc3ccccc3)[nH]2)Cn2cc(C(=O)C(F)(F)F)c3cccc1c32` [T-93, (S)-5-benzyl-N-(1-methyl-2-oxo-7-(2,2,2-trifluoroacetyl)-1,2,3,4-tetrahydro-[1,4]diazepine [3,2,1-hi]indol-3-yl)-4H-1,2,4-triazole-3-carboxamide] yielded an IC50 of 100 to 1000 nM. For the molecule `CN1C(=O)[C@@H](NC(=O)c2nnc(Cc3ccccc3)[nH]2)Cn2cc(C(=O)O)c3cccc1c32` [T-94, (S)-3-(5-benzyl-4H-1,2,4-triazole-3-carboxamide)-1-methyl-2-oxo-1,2,3,4-tetrahydro-[1,4] diazabicyclo[3,2,1-hi] indole-7-carboxylic Acid], the IC50 was more than 1000 nM. Same read-out and setting: the result for `COC(=O)c1cn2c3c(cccc13)N(C)C(=O)[C@@H](NC(=O)c1nnc(Cc3ccccc3)[nH]1)C2` [T-95, Methyl (S)-3-(5-benzyl-4H-1,2,4-triazole-3-carboxamide)-1-methyl-2-oxo-1,2,3,4-tetrahydro-[1,4] diazepine [3,2,1-hi] indole-7-carboxylate] reads 100 to 1000 nM.

Still in this experiment, the particulars now being: Homo sapiens; TNF-α induced necroptosis, Jurkat FADD-deficient cells, 13 hours, CellTiter-Glo; read-out: IC50.
`CN1C(=O)C(NC(=O)c2nnc(Cc3ccccc3)[nH]2)Cc2cn(-c3ncccc3OC(F)(F)F)c3cccc1c23` (racemic) [T-105, (±)-5-benzyl-N-(1-methyl-2-oxo-6-(3-(trifluoromethoxy)pyridin-2-yl)-2,3,4,6-tetrahydro-1H-azacyclo [4,3,2-cd]indol-3-yl)-4H-1,2,4-triazole-3-carboxamide]: the IC50 was less than 10 nM. With `CN1C(=O)C(NC(=O)c2nnc(Cc3ccccc3)[nH]2)Cc2cn(-c3cccnn3)c3cccc1c23` (racemic) [T-106, (±)-5-benzyl-N-(1-methyl-2-oxo-6-(pyridazin-3-yl)-2,3,4,6-tetrahydro-1H-aza [4,3,2-cd]indol-3-yl)-4H-1,2,4-triazole-3-carboxamide], the IC50 was 100 to 1000 nM. With `CN1C(=O)C(NC(=O)c2nnc(Cc3ccccc3)[nH]2)Cc2cn(-c3ncccc3OC(F)F)c3cccc1c23` (racemic) [T-107, (±)-5-benzyl-N-(6-(3-(difluoromethoxy)pyridin-2-yl)-1-methyl-2-oxy-2,3,4,6-tetrahydro-1H-azacyclo [4,3,2-cd]indol-3-yl)-4H-1,2,4-triazole-3-carboxamide], the IC50 is less than 10 nM.

Regarding `CCS(=O)(=O)c1cccnc1-n1cc2c3c(cccc31)N(C)C(=O)C(NC(=O)c1nnc(Cc3ccccc3)[nH]1)C2` (racemic) [T-108, (±)-5-benzyl-N-(6-(3-(ethylsulfonyl)pyridin-2-yl)-1-methyl-2-oxo-2,3,4,6-tetrahydro-1H-aza [4,3,2-cd]indol-3-yl)-4H-1,2,4-triazole-3-carboxamide], the IC50 lay within 10 to 100 nM.

As to `CN1C(=O)C(NC(=O)c2nnc(Cc3ccccc3)[nH]2)Cc2cn(-c3ncccc3S(=O)(=O)C3CC3)c3cccc1c23` (racemic) [T-109, (±)-5-benzyl-N-(6-(3-(cyclopropylsulfonyl)pyridin-2-yl)-1-methyl-2-oxo-2,3,4,6-tetrahydro-1H-azacyclo [4,3,2-cd]indol-3-yl)-4H-1,2,4-triazole-3-carboxamide], the IC50 is less than 10 nM. As to `CN1C(=O)C(NC(=O)c2nnc(Cc3ccccc3)[nH]2)Cc2cn(-c3ncccc3P(C)(C)=O)c3cccc1c23` (racemic) [T-110, (±)-5-benzyl-N-(6-(3-(dimethylphosphoryl)pyridin-2-yl)-1-methyl-2-oxo-2,3,4,6-tetrahydro-1H-aza [4,3,2-cd]indol-3-yl)-4H-1,2,4-triazole-3-carboxamide], the IC50 was more than 1000 nM. As for `CN1C(=O)C(NC(=O)c2nnc(Cc3ccccc3)[nH]2)Cc2cn(-c3ncccc3SC(F)(F)F)c3cccc1c23` (racemic) [T-111, (±)-5-benzyl-N-(1-methyl-2-oxo-6-(3-((trifluoromethyl)thio)pyridin-2-yl)-2,3,4,6-tetrahydro-1H-aza [4,3,2-cd]indol-3-yl)-4H-1,2,4-triazole-3-carboxamide], the IC50 is less than 10 nM.

On to `Cc1nn(C)c(C)c1-c1cn2c3c(cccc13)N(C)C(=O)C(NC(=O)c1nnc(Cc3ccccc3)[nH]1)C2` (racemic) [T-114, (±)-5-benzyl-N-(1-methyl-2-oxo-7-(1,3,5-trimethyl-1H-pyrazol-4-yl)-1,2,3,4-tetrahydro-[1,4]diazepine [3,2,1-hi]indol-3-yl)-4H-1,2,4-triazole-3-carboxamide], for which the IC50 was less than 10 nM.

As for `CN1C(=O)C(NC(=O)c2nnc(Cc3ccccc3)[nH]2)Cc2c[nH]c3ccnc1c23` (racemic) [T-129, (±)-5-benzyl-N-(6-methyl-7-oxo-6,7,8,9-tetrahydro-2H-2,5,6-triazabenzene[cd]azulene-8-yl)-4H-1,2,4-triazol-3-carboxamide], the IC50 was 100 to 1000 nM. Consider `CN1C(=O)C(NC(=O)c2nnc(Cc3ccccc3)[nH]2)Cc2c[nH]c3cncc1c23` (racemic) [T-130, (±)-5-benzyl-N-(6-methyl-7-oxo-6,7,8,9-tetrahydro-2H-2,3,6-triazabenzene[cd]azulene-8-yl)-4H-1,2,4-triazol-3-carboxamide], for which the IC50 was more than 1000 nM.

As for `CN1C(=O)C(NC(=O)c2nnc(Cc3ccccc3)[nH]2)Cc2c[nH]c3ccc(F)c1c23` (racemic) [T-131, (±)-5-benzyl-N-(9-fluoro-1-methyl-2-oxo-2,3,4,6-tetrahydroazepincd [4,3,2-cd]indol-3-yl)-4H-1,2,4-triazole-3-carboxamide], the IC50 is less than 10 nM. As for `CN1C(=O)[C@@H](NC(=O)c2nnc(Cc3ccccc3)[nH]2)Cc2c[nH]c3nccc1c23` [T-71, (S)-5-benzyl-N-(6-methyl-7-oxo-6,7,8,9-tetrahydro-2H-2,3,6-triazabenzene[cd]azulene-8-yl)-4H-1,2,4-triazole-3-carboxamide], the IC50 fell in the range of 10 to 100 nM.

Consider `CN1C(=O)[C@@H](NC(=O)c2nnc(Cc3ccccc3)[nH]2)Cc2n[nH]c3cccc1c23` [T-72, (S)-5-benzyl-N-(6-methyl-7-oxo-6,7,8,9-tetrahydro-2H-azacyclo [4,3,2-cd]indazol-8-yl)-4H-1,2,4-triazole-3-carboxamide], for which the IC50 was 100 to 1000 nM. For the molecule `COc1ncccc1-c1cn2c3c(cccc13)N(C)C(=O)C(NC(=O)c1nnc(Cc3ccccc3)[nH]1)C2` (centres unmarked) [T-78, 5-benzyl-N-(7-(2-methoxypyridin-3-yl)-1-methyl-2-oxo-1,2,3,4-tetrahydro-[1,4]diazepino[3,2,1-hi]indol-3-yl)-4H-1,2,4-triazole-3-carboxamide], the IC50 is less than 10 nM. For `Cc1cnn(C)c1-c1cn2c3c(cccc13)N(C)C(=O)C(NC(=O)c1nnc(Cc3ccccc3)[nH]1)C2` (centres unmarked) [T-81, 5-benzyl-N-(7-(1,4-dimethyl-1H-pyrazol-5-yl)-1-methyl-2-oxo-1,2,3,4-tetrahydro-[1,4]diazepino[3,2,1-hi]indol-3-yl)-4H-1,2,4-triazole-3-carboxamide], the IC50 is less than 10 nM. In the case of `CN1C(=O)C(NC(=O)c2nnc(Cc3ccccc3)[nH]2)Cn2cc(-c3ncccc3C(F)(F)F)c3cccc1c32` (centres unmarked) [T-82, 5-benzyl-N-(1-methyl-2-oxo-7-(3-(trifluoromethyl)pyridin-2-yl)-1,2,3,4-tetrahydro-[1,4]diazepino[3,2,1-hi]indol-3-yl)-4H-1,2,4-triazole-3-carboxamide], the IC50 was less than 10 nM.

On to `Cc1noc(C)c1-c1cn2c3c(cccc13)N(C)C(=O)C(NC(=O)c1nnc(Cc3ccccc3)[nH]1)C2` (centres unmarked) [T-86, 5-benzyl-N-(7-(3,5-dimethylisoxazol-4-yl)-1-methyl-2-oxo-1,2,3,4-tetrahydro-[1,4]diazepine[3,2,1-hi]indol-3-yl)-4H-1,2,4-triazole-3-carboxamide], for which the IC50 is less than 10 nM. Take `CN1C(=O)[C@@H](NC(=O)c2nnc(Cc3ccccc3)[nH]2)Cn2cc(-c3cnn(C(F)F)c3)c3cccc1c32` [T-115, (S)-5-benzyl-N-(7-(1-(difluoromethyl)-1H-pyrazol-4-yl)-1-methyl-2-oxo-1,2,3,4-tetrahydro-1,4-diazepine [3,2,1-hi]indol-3-yl)-4H-1,2,4-triazole-3-carboxamide]: the IC50 was 10 to 100 nM. In the case of `CN1C(=O)[C@@H](NC(=O)c2nnc(Cc3ccccc3)[nH]2)Cn2cc(-c3ccn[nH]3)c3cccc1c32` [T-116, (S)-5-benzyl-N-(1-methyl-2-oxo-7-(1H-pyrazol-5-yl)-1,2,3,4-tetrahydro-[1,4]diazepine [3,2,1-hi]indol-3-yl)-4H-1,2,4-triazole-3-carboxamide], the IC50 lay in the range of 10 to 100 nM. Still for that read-out and setting: for `Cc1nn(C)cc1-c1cn2c3c(cccc13)N(C)C(=O)[C@@H](NC(=O)c1nnc(Cc3ccccc3)[nH]1)C2` [T-117, (S)-5-benzyl-N-(7-(1,3-dimethyl-1H-pyrazol-4-yl)-1-methyl-2-oxo-1,2,3,4-tetrahydro-1,4-diazepine [3,2,1-hi]indol-3-yl)-4H-1,2,4-triazole-3-carboxamide] the value was less than 10 nM.

The experiment is the same for the next values; noted with them: TNF-α induced necroptosis, Jurkat FADD-deficient cells, 13 hours, CellTiter-Glo; read-out: IC50.
As for `Cc1nn(C)c(C)c1-c1cn2c3c(cccc13)N(C)C(=O)C(NC(=O)c1nnc(Cc3ccccc3)[nH]1)C2` (racemic) [T-119, (±)-5-benzyl-N-(1-methyl-2-oxo-7-(1,3,5-trimethyl-1H-pyrazol-4-yl)-1,2,3,4-tetrahydro-[1,4]diazepine [3,2,1-hi]indol-3-yl)-4H-1,2,4-triazole-3-carboxamide], the IC50 was less than 10 nM. Consider `CN1C(=O)[C@@H](NC(=O)c2nnc(Cc3ccccc3)[nH]2)Cn2ccc3c(-c4c[nH]nc4C(F)(F)F)ccc1c32` [T-113, (S)-5-benzyl-N-(1-methyl-2-oxo-7-(3-(trifluoromethyl)-1H-pyrazol-4-yl)-1,2,3,4-tetrahydro-[1,4]diazepine [3,2,1-hi]indol-3-yl)-4H-1,2,4-triazole-3-carboxamide], for which the half-inhibitory concentration (IC50) was less than 10 nM.

The values are drawn from US20250049812A1, “Compounds that Inhibit Necroptosis and Their Preparation Methods” (SHANGHAI INSTITUTE OF ORGANIC CHEMISTRY, CHINESE ACADEMY OF …, priority 2021, published 2025).
